Measured values: patent publication US20180000085A1, “USE OF PICOLINAMIDE COMPOUNDS WITH FUNGICIDAL ACTIVITY” (DOW AGROSCIENCES LLC, priority 2014, published 2018)

Assays:
Puccinia triticina = assay: Wheat brown rust (PUCCRT) disease control on wheat seedlings; assay type: in vivo; parameters: key to PUCCRT 3DC, HV activity at 100 ppm (% control rating) / PUCCRT disease control, 3DC / PUCCRT 1DP disease control rating, HV activity / PUCCRT 3DC disease control rating, HV activity / PUCCRT 3DC, LV activity at 125.1 g/H (% Control rating) / PUCCRT 1DP, LV activity at 125.1 g/H (% Control rating) / PUCCRT 3DC disease control rating, LV activity at 125.1 g/H / PUCCRT 1DP disease control rating, LV activity at 125.1 g/H / PUCCRT 3DC disease control rating, HV activity at 100 ppm / PUCCRT 1DP disease control rating, HV activity at 100 ppm / HV activity at 100 ppm PUCCRT 3DC (disease control rating) / LV activity at 125.1 g/H PUCCRT 1DP (disease control rating) / LV activity at 125.1 g/H PUCCRT 3DC (disease control rating): A: > 80; B: ≤ 80; C: Not Tested; D: No Activity Observed in the Reported Assay; conditions: for PUCCRT 1DP disease control rating, HV activity / PUCCRT 3DC disease control rating, HV activity: HV application at 100 ppm, wheat brown rust; for PUCCRT 1DP disease control rating, HV activity / PUCCRT 1DP, LV activity at 125.1 g/H (% Control rating): 1 Day Protectant; for PUCCRT 3DC disease control rating, HV activity / PUCCRT 3DC, LV activity at 125.1 g/H (% Control rating): 3 Day Curative; for PUCCRT 1DP, LV activity at 125.1 g/H (% Control rating) / PUCCRT 3DC, LV activity at 125.1 g/H (% Control rating) / PUCCRT 1DP disease control rating, LV activity at 125.1 g/H / PUCCRT 3DC disease control rating, LV activity at 125.1 g/H: low volume application
Zymoseptoria tritici = assay: Leaf blotch of wheat (SEPTTR) disease control on wheat seedlings; assay type: in vivo; parameters: key to SEPTTR 1DP, HV activity at 100 ppm (% control rating) / SEPTTR 3DC, HV activity at 100 ppm (% control rating) / SEPTTR disease control, 1DP / SEPTTR disease control, 3DC / SEPTTR 1DP disease control rating, HV activity / SEPTTR 3DC disease control rating, HV activity / SEPTTR 3DC, LV activity at 125.1 g/H (% Control rating) / SEPTTR 1DP, LV activity at 125.1 g/H (% Control rating) / SEPTTR 1DP disease control rating, LV activity at 125.1 g/H / SEPTTR 3DC disease control rating, LV activity at 125.1 g/H / SEPTTR 3DC disease control rating, HV activity at 100 ppm / SEPTTR 1DP disease control rating, HV activity at 100 ppm / HV activity at 100 ppm SEPTTR 3DC (disease control rating) / HV activity at 100 ppm SEPTTR 1DP (disease control rating) / LV activity at 125.1 g/H SEPTTR 1DP (disease control rating) / LV activity at 125.1 g/H SEPTTR 3DC (disease control rating): A: > 80; B: ≤ 80; C: Not Tested; D: No Activity Observed in the Reported Assay; conditions: for SEPTTR 1DP disease control rating, HV activity / SEPTTR 3DC disease control rating, HV activity: HV application at 100 ppm, wheat leaf blotch; for SEPTTR 1DP disease control rating, HV activity / SEPTTR 1DP, LV activity at 125.1 g/H (% Control rating): 1 Day Protectant; for SEPTTR 3DC disease control rating, HV activity / SEPTTR 3DC, LV activity at 125.1 g/H (% Control rating): 3 Day Curative; for SEPTTR 1DP, LV activity at 125.1 g/H (% Control rating) / SEPTTR 3DC, LV activity at 125.1 g/H (% Control rating) / SEPTTR 1DP disease control rating, LV activity at 125.1 g/H / SEPTTR 3DC disease control rating, LV activity at 125.1 g/H: low volume application
[1] = high volume application, 100 ppm, 1 day protectant
[2] = high volume application, 100 ppm, 3 day curative

`COc1ccnc(C(=O)NC(C)C(=O)OC(C)C(Oc2ccc(C(F)(F)F)cc2)C(C)C)c1O` (stereo not drawn) [Cmpd 394] was tested, and the “PUCCRT 1DP disease control rating, HV activity” value (Puccinia triticina) was “B (≤ 80)”, the “PUCCRT 3DC disease control rating, HV activity” value (Puccinia triticina) was “B (≤ 80)” and the “SEPTTR 1DP disease control rating, HV activity” value (Zymoseptoria tritici) was “A (> 80)”. The “SEPTTR 3DC disease control rating, HV activity” value (Zymoseptoria tritici) was “B (≤ 80)”.

With `COc1ccnc(C(=O)N[C@H](C(=O)O[C@@H](C)[C@H](Oc2ccc(C(F)(F)F)cc2)c2ccccc2)C(C)C)c1OCOC(C)=O` [Cmpd 584] the “PUCCRT 1DP, LV activity at 125.1 g/H (% Control rating)” value (Puccinia triticina) was “A (> 80)”, the “PUCCRT 3DC, LV activity at 125.1 g/H (% Control rating)” value (Puccinia triticina) was “B (≤ 80)” and the “SEPTTR 1DP, LV activity at 125.1 g/H (% Control rating)” value (Zymoseptoria tritici) was “A (> 80)”. For the same compound, the “SEPTTR 3DC, LV activity at 125.1 g/H (% Control rating)” value (Zymoseptoria tritici) was “D”.

For `CCC(CC)[C@@H](Oc1ccccc1Cl)[C@H](C)OC(=O)[C@@H](NC(=O)c1nccc(OC)c1OCOC(C)=O)C(C)C` [Cmpd 652], the “PUCCRT 1DP, LV activity at 125.1 g/H (% Control rating)” value (Puccinia triticina) was “A (> 80)”, the “PUCCRT 3DC, LV activity at 125.1 g/H (% Control rating)” value (Puccinia triticina) was “B (≤ 80)” and the “SEPTTR 1DP, LV activity at 125.1 g/H (% Control rating)” value (Zymoseptoria tritici) was “B (≤ 80)”. For the same compound, the “SEPTTR 3DC, LV activity at 125.1 g/H (% Control rating)” value (Zymoseptoria tritici) was “B (≤ 80)”.

In the case of `COc1ccnc(C(=O)N[C@@H](C)C(=O)O[C@@H](C)[C@H](OC)c2ccccc2)c1OC(C)=O` [Cmpd 887], the “PUCCRT 1DP disease control rating, LV activity at 125.1 g/H” value (Puccinia triticina; 1 day protectant) is reported as “D”, the “PUCCRT 3DC disease control rating, LV activity at 125.1 g/H” value (Puccinia triticina; 3 day curative) is reported as “A (> 80)” and the “SEPTTR 1DP disease control rating, LV activity at 125.1 g/H” value (Zymoseptoria tritici; 1 day protectant) is reported as “D”. For the same compound, the “SEPTTR 3DC disease control rating, LV activity at 125.1 g/H” value (Zymoseptoria tritici; 3 day curative) was “A (> 80)”.

`CC[C@H](NC(=O)c1nccc(OC)c1O)C(=O)O[C@@H](C)[C@@H](COc1ccccc1)Oc1ccccc1` [Cmpd 316] was tested, and the “PUCCRT 1DP disease control rating, HV activity” value (Puccinia triticina) was “A (> 80)”, the “PUCCRT 3DC disease control rating, HV activity” value (Puccinia triticina) was “A (> 80)” and the “SEPTTR 1DP disease control rating, HV activity” value (Zymoseptoria tritici) was “B (≤ 80)”. The “SEPTTR 3DC disease control rating, HV activity” value (Zymoseptoria tritici) was “B (≤ 80)”.

For `COc1ccnc(C(=O)N[C@@H](C)C(=O)O[C@@H](C)[C@@H](OC(=O)c2ccccc2)C(C)C)c1OC(C)=O` [Cmpd 856], the “PUCCRT 1DP disease control rating, LV activity at 125.1 g/H” value (Puccinia triticina; 1 day protectant) was “B (≤ 80)”, the “PUCCRT 3DC disease control rating, LV activity at 125.1 g/H” value (Puccinia triticina; 3 day curative) was “B (≤ 80)” and the “SEPTTR 1DP disease control rating, LV activity at 125.1 g/H” value (Zymoseptoria tritici; 1 day protectant) was “D”. The “SEPTTR 3DC disease control rating, LV activity at 125.1 g/H” value (Zymoseptoria tritici; 3 day curative) was “D”.

In the case of `CCC(CC)C(Oc1cc(F)ccc1F)C(C)OC(=O)C(CC(C)C)NC(=O)c1nccc(OC)c1OC(C)=O` (stereo not drawn) [Cmpd 687], the “PUCCRT 1DP disease control rating, LV activity at 125.1 g/H” value (Puccinia triticina; 1 day protectant) is reported as “D”, the “PUCCRT 3DC disease control rating, LV activity at 125.1 g/H” value (Puccinia triticina; 3 day curative) is reported as “B (≤ 80)” and the “SEPTTR 1DP disease control rating, LV activity at 125.1 g/H” value (Zymoseptoria tritici; 1 day protectant) is reported as “D”. The “SEPTTR 3DC disease control rating, LV activity at 125.1 g/H” value (Zymoseptoria tritici; 3 day curative) was “B (≤ 80)”.

`CCCOC(CC)C(Oc1ccccc1)C(C)OC(=O)C(NC(=O)c1nccc(OC)c1OCOC(C)=O)C(C)CC` (stereo not drawn) [Cmpd 449] was tested, and the “PUCCRT 1DP disease control rating, HV activity” value (Puccinia triticina) was “A (> 80)”, the “PUCCRT 3DC disease control rating, HV activity” value (Puccinia triticina) was “A (> 80)” and the “SEPTTR 1DP disease control rating, HV activity” value (Zymoseptoria tritici) was “A (> 80)”. For the same compound, the “SEPTTR 3DC disease control rating, HV activity” value (Zymoseptoria tritici) was “B (≤ 80)”.

In the case of `COc1ccnc(C(=O)N[C@@H](C)C(=O)O[C@@H](C)COC(C)(C)C)c1O` [Cmpd 341], the “PUCCRT 1DP disease control rating, HV activity” value (Puccinia triticina) is reported as “B (≤ 80)”, the “PUCCRT 3DC disease control rating, HV activity” value (Puccinia triticina) is reported as “B (≤ 80)” and the “SEPTTR 1DP disease control rating, HV activity” value (Zymoseptoria tritici) is reported as “B (≤ 80)”. The “SEPTTR 3DC disease control rating, HV activity” value (Zymoseptoria tritici) was “B (≤ 80)”.

With `COc1ccnc(C(=O)N[C@@H](C)C(=O)O[C@@H](C)[C@H](Oc2cccc(F)c2)c2cccc(-c3ccccc3)c2)c1OCOC(C)=O` [Cmpd 874] the “PUCCRT 1DP disease control rating, LV activity at 125.1 g/H” value (Puccinia triticina; 1 day protectant) was “A (> 80)”, the “PUCCRT 3DC disease control rating, LV activity at 125.1 g/H” value (Puccinia triticina; 3 day curative) was “B (≤ 80)” and the “SEPTTR 1DP disease control rating, LV activity at 125.1 g/H” value (Zymoseptoria tritici; 1 day protectant) was “A (> 80)”. For the same compound, the “SEPTTR 3DC disease control rating, LV activity at 125.1 g/H” value (Zymoseptoria tritici; 3 day curative) was “B (≤ 80)”.

`C=CC[C@@H](Oc1cc(F)cc(Cl)c1)[C@H](C)OC(=O)[C@H](C)NC(=O)c1nccc(OC)c1O` [Cmpd 1022] was tested, and the “PUCCRT 1DP disease control rating, HV activity at 100 ppm” value (Puccinia triticina; [1]) was “B (≤ 80)”, the “PUCCRT 3DC disease control rating, HV activity at 100 ppm” value (Puccinia triticina; [2]) was “A (> 80)” and the “SEPTTR 1DP disease control rating, HV activity at 100 ppm” value (Zymoseptoria tritici; [1]) was “D”. The “SEPTTR 3DC disease control rating, HV activity at 100 ppm” value (Zymoseptoria tritici; [2]) was “B (≤ 80)”.

With `CCC(CC)[C@@H](Oc1ccc(C(F)(F)F)cc1)[C@H](C)OC(=O)[C@@H](NC(=O)c1nccc(OC)c1O)C(C)C` [Cmpd 412] the “PUCCRT 1DP disease control rating, HV activity” value (Puccinia triticina) was “B (≤ 80)”, the “PUCCRT 3DC disease control rating, HV activity” value (Puccinia triticina) was “D” and the “SEPTTR 1DP disease control rating, HV activity” value (Zymoseptoria tritici) was “B (≤ 80)”. For the same compound, the “SEPTTR 3DC disease control rating, HV activity” value (Zymoseptoria tritici) was “B (≤ 80)”.
